Measured values as given in US11447500B2, “Thienopyridine derivatives and pharmaceutical composition comprising same” (WELLMARKER BIO CO., LTD., priority 2018, dated 2022).
Structures can show the parent of a compound that is named as a salt.

Assays:
RON kinase = molecular target: T1, RON kinase (Homo sapiens, UniProt Q04912); test: RON kinase enzyme inhibitory activity, FRET (TR-FRET) technique; assay type: biochemical; settings: 60 min reaction
T1 construct: purchased Carna Bioscience
Experimental: The enzyme inhibitory activity (IC50) of the thienopyridine derivative was measured using FRET (fluorescence resonance energy transfer) technique. RON kinase (Carna Bioscience) was diluted with a kinase assay buffer (50 mM HEPES pH 7.5, 1 mM EGTA, 10 mM MgCl2, 2 mM DTT, and 0.01% Tween-20) to a concentration of 2× (0.4 nM) the final reaction concentration and the dilution was added to a 384-well plate at 5 μL/well. As sample compounds, the compounds synthesized in the examples of the present invention and the compounds of the comparative examples were used. The sample compounds were respectively dissolved in 100% DMSO to obtain 1 mM stock solutions, which were then subjected to eight 10-fold serial dilutions. The sample compounds were diluted with the kinase assay buffer to a concentration of 4× the final reaction concentration, and the dilutions were added to the 384-well plate at 2.5 μL/well. The plate was incubated at room temperature for 15 minutes. Next, 0.25 M ATP solution (Sigma Aldrich) was diluted with the kinase reaction buffer to a concentration of 4× (60 μM) the final reaction concentration, and a tyrosine peptide substrate (Perkin-Elmer) was diluted therein to a concentration of 4× (400 nM) the final reaction concentration. The dilution was added to the 384-well plate at 2.5 μL/well. Then, the 384-well plate was incubated at room temperature and the reaction was allowed to proceed for 60 minutes. After 60 minutes, EDTA (Sigma Aldrich) was diluted with TR-FRET detection buffer (Perkin-Elmer) to a concentration of 4× (40 mM) the final reaction concentration. A europium-labeled anti-phosphotyrosine antibody (Perkin-Elmer) was diluted in the above EDTA dilution to a concentration of 4× (8 nM) the final reaction concentration to prepare a stop solution of the RON kinase reaction. The stop solution was added to the 384-well plate at 10 μL/well to terminate the reaction, and the plate was incubated at room temperature for 60 minutes. Thereafter, the plate was read on Victor X5 plate reader (Perkin-Elmer). At this time, the excitation wavelength was 340 nm and the emission wavelengths were 620 nm and 665 nm. The IC50 values of the sample compounds were determined using GraphPad Prism™ 5 by expressing the emission energy at 665 nm as a function of the sample compound concentration.

[1] = tested on: RON-mutated (Δ160) HT-29 colon cancer cell line; test: Cell killing efficacy, trypan blue exclusion assay, HT-29; assay type: cell-based; settings: HT29 cell, 48 hours
Experimental: (§1) Two colon cancer cell lines, RON-activated KM12C (80015, KCLB, MEM+10% FBS) and RON-mutated (Δ160) HT-29 (30038, KCLB, RPMI+10% FBS) were prepared in 6-well plates at 5×10^4 cells/well, respectively. After 24 hours, while freshly changing the medium, the sample compounds were added to the wells at a concentration of 1 μM or 5 μM and the plates were allowed to stand for 48 hours.
(§2) As the sample compounds, the compounds synthesized in the examples of the present invention and the compounds of the comparative examples were used.
(§3) After 48 hours, the cell suspensions were collected and centrifuged (1,500 rpm, 4 min.) to obtain the cells, and live cells and dead cells were quantitated (n=2) through a trypan blue (15250-061, Gibco) exclusion assay. The statistical analysis was performed using Excel™ T-test from Microsoft.
(§4) The cell death rates of the compounds of Examples and Comparative Examples were respectively measured and the results are shown in Table 4 as relative ratios to Comparative Example 1.

[2] = tested on: RON-activated KM12C colon cancer cell line; test: Cell killing efficacy, trypan blue exclusion assay, KM12C; assay type: cell-based; settings: 48 hours
Experimental: as §1, §2, §3, §4

T1 sequence (Q04912 25-1400): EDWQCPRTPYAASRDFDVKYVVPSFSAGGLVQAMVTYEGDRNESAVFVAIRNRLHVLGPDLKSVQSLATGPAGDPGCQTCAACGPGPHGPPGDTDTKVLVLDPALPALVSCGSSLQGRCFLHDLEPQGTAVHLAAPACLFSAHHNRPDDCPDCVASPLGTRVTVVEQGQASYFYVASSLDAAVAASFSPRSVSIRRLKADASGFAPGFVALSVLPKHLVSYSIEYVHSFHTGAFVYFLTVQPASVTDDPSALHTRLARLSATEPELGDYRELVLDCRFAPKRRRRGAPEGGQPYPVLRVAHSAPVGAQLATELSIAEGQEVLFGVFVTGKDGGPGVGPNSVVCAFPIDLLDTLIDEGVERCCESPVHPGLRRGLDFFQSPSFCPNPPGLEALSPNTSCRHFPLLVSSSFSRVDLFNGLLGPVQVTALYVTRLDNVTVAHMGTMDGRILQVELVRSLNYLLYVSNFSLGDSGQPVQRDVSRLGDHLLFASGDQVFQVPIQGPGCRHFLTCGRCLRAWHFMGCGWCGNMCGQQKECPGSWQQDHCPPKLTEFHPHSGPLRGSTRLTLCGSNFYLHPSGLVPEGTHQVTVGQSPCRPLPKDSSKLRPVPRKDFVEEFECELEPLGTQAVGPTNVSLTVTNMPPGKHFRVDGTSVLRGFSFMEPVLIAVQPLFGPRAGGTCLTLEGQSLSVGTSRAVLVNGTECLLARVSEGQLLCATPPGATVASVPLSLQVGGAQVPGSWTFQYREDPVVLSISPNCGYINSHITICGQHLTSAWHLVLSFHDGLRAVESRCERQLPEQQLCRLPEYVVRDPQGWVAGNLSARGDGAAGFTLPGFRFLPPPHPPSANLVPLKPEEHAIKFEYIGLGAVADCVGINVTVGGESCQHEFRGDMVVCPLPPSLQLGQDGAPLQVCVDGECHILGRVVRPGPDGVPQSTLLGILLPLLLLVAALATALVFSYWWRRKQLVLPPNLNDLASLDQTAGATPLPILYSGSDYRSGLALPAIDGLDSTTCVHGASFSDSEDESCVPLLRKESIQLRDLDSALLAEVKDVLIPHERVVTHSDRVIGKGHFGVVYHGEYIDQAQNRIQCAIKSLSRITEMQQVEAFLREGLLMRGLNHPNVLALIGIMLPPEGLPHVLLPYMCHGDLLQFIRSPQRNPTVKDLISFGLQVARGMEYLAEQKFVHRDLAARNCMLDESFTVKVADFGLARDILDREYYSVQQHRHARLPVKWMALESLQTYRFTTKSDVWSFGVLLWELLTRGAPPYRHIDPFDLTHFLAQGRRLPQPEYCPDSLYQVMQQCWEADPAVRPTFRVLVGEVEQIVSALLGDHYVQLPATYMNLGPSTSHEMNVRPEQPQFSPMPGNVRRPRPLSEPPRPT

Row | SMILES | IC50 (RON kinase) [nM] | Cell death rate (Relative to Comp. Ex. 1) ([1]; 1 μM) | Cell death rate (Relative to Comp. Ex. 1) ([1]; 5 μM) | Cell death rate (Relative to Comp. Ex. 1) ([2]; 1 μM) | Cell death rate (Relative to Comp. Ex. 1) ([2]; 5 μM)
1 | COCCNCc1ccc(-c2cc3nccc(Oc4ccc(NC(=O)c5c(C)cnn(-c6ccccc6)c5=O)cc4F)c3s2)nc1.Cl [Example 18, N-(3-fluoro-4-{[2-(5-{[(2-methoxyethyl)amino]methyl}pyridin-2-yl)thieno[3,2-b]pyridin-7-yl]oxy}phenyl)-5-methyl-3-oxo-2-phenyl-2,3-dihydropyridazine-4-carboxamide Hydrochloride] | 0.77 | x 1.33 | x 1.37 | x 0.56 | x 1.09
2 | CCOc1ccn(-c2ccc(F)cc2)c(=O)c1C(=O)Nc1ccc(Oc2ccnc3cc(-c4ccc(CN(C)CCOC)cn4)sc23)c(F)c1 [Example 30, 4-ethoxy-N-(3-fluoro-4-{[2-(5-{[(2-methoxyethyl)(methyl)amino]methyl}pyridin-2-yl)thieno[3,2-b]pyridin-7-yl]oxy}phenyl)-1-(4-fluorophenyl)-2-oxo-1,2-dihydropyridine-3-carboxamide Hydrochloride] | 0.88 | x 1.34 | x 1.07 | x 2.48 | x 2.06
3 | COCCNCc1ccc(-c2cc3nccc(Oc4ccc(NC(=O)c5cccn(-c6ccc(F)cc6)c5=O)cc4F)c3s2)nc1.Cl [Example 4, N-(3-fluoro-4-{[2-(5-{[(2-methoxyethyl)amino]methyl}pyridin-2-yl)thieno[3,2-b]pyridin-7-yl]oxy}phenyl)-1-(4-fluorophenyl)-2-oxo-1,2-dihydropyridine-3-carboxamide Hydrochloride] | 0.68 | x 3.51 | x 3.63 | x 0.59 | x 0.80

More lines, main results first:

Row | IC50 (RON kinase) [nM] | SMILES | Cell death rate (Relative to Comp. Ex. 1) ([1]; 1 μM) | Cell death rate (Relative to Comp. Ex. 1) ([1]; 5 μM) | Cell death rate (Relative to Comp. Ex. 1) ([2]; 1 μM) | Cell death rate (Relative to Comp. Ex. 1) ([2]; 5 μM)
4 | 0.08 | COCCNCc1ccc(-c2cc3nccc(Oc4ccc(NC(=O)c5c(OC)ccn(-c6ccc(F)cc6)c5=O)cc4Cl)c3s2)nc1.Cl [Example 9, N-(3-chloro-4-{[2-(5-{[(2-methoxyethyl)amino]methyl}pyridin-2-yl)thieno[3,2-b]pyridin-7-yl]oxy}phenyl)-1-(4-fluorophenyl)-4-methoxy-2-oxo-1,2-dihydropyridine-3-carboxamide Hydrochloride] | x 4.08 | x 3.53 | x 2.26 | x 2.87
5 | 0.28 | CCOc1ccn(-c2ccc(F)cc2)c(=O)c1C(=O)Nc1ccc(Oc2ccnc3cc(-c4ccc(CNCCOC)cn4)sc23)c(F)c1.Cl [Example 7, 4-ethoxy-N-(3-fluoro-4-{[2-(5-{[(2-methoxyethyl)amino]methyl}pyridin-2-yl)thieno[3,2-b]pyridin-7-yl]oxy}phenyl)-1-(4-fluorophenyl)-2-oxo-1,2-dihydropyridine-3-carboxamide Hydrochloride] | x 2.97 | x 2.90 | x 2.38 | x 1.32
6 | 0.26 | COCCNCc1ccc(-c2cc3nccc(Oc4ccc(NC(=O)c5c(OC)ccn(-c6ccc(F)cc6)c5=O)cc4)c3s2)nc1.Cl [Example 11, 1-(4-fluorophenyl)-4-methoxy-N-(4-{[2-(5-{[(2-methoxyethyl)amino]methyl}pyridin-2-yl)thieno[3,2-b]pyridin-7-yl)oxy)phenyl)-2-oxo-1,2-dihydropyridine-3-carboxamide Hydrochloride] | x 1.16 | x 0.94 | x 0.99 | x 1.65
